Measurements published in patent US10995070B2, “Acetyl-CoA carboxylase modulators” (Monsanto Technology LLC, priority 2013, dated 2021).

Columns and labels:
[1] = molecular target: Ustilago maydis acetyl CoA carboxylase (ACCase) (Ustilago maydis, UniProt A0A0D1DYD5); test: ACCase enzymatic assay (coupled PK/LDH, NADH OD340); assay type: biochemical; details: read-out: ACCase Inhibitory Activity IC50
Method: Ustilago maydis acetyl CoA carboxylase (ACCase) was cloned, expressed, and purified as described (Weatherly et al, Biochem. J., 2004) and the test compounds were tested in a 96-well plate format. Primary in vitro screening consisted of obtaining dose response data at 100, 33, 10, and 1 μM inhibitor. Actives in the primary screen were re-tested to establish IC50 values.
Direct detection of the conversion of acetyl CoA to malonyl CoA by ACCase was not feasible, but during this process ATP is converted to ADP which allowed for detection through a standard reaction coupling with ADP recycling to the oxidation of NADH. Thus, ACCase activity was measured via kinetic OD340 measurements of the conversion of NADH to NAD in a coupled reaction involving the conversion of phosphoenolpyruvate (PEP) to lactate.
The complete 200 ul reaction mixture contained 52.5 mM HEPES (pH8), 2.625 mM MgCl2, 1 mM ATP, 0.525 mM DTT, 11 mM NaHCO3, 1% DMSO with or without inhibitor, 1× pyruvate kinase/lactate dehydrogenase (PK/LDH), 0.3 mM NADH, 0.5 mM PEP, and 5 μg ACCase. The reactions were incubated at 30° C. for 10 minutes and then initiated by the addition of 0.33 mM acetyl CoA. The initiated reactions were read immediately via plate reader at OD340 and kinetic readings were acquired every 20 s for 15 minutes while keeping the temperature at 30° C.
A slope of the kinetic curve was determined by using the 2 to 7 minute data which was then calculated as percent inhibition relative to the no inhibitor control.
The primary screens were conducted in duplicate and the IC50's conducted in triplicate. Averages were reported along with standard deviation calculation to generate error bars.
Each plate contained its own controls and consisted of a DMSO only control, 5-fold titration series of soraphen from 2 μM to 3.2 nM, and an ADP coupled reaction control. […]
A slope of the kinetic curve was determined by using the 2 to 7 minute data which was then calculated as percent inhibition relative to the no inhibitor control. Those compounds which had no significant PK/LDH inhibition at or above the IC50 in the ACCase assay, were considered to be valid modulators of only ACCase.

[2] = test system: Diplodia maydis; test: Fungal growth inhibition assay, D. maydis; assay type: cell-based; details: 48 h
Method: (§1) Spores were isolated from previously sub-cultured plates of Botrytis cinerea, Phytophthora capsici, Fusarium moniliforme, Fusarium viguliforme, Collectotrichum graminicola, and Diplodia maydis. All spores were filtered and collected in a sterile glass bowl to isolate the spores from the mycelia. The isolation and sub-culture plate condition for each pathogen is described below.
Spore isolation for D. maydis: A 3-4 week old PDA (pre-mix) plate was removed from 26° C. incubator with a light/dark 12 hour cycle and the mycelia were treated with 6-7 ml of sterile distilled water, scraped into a sterile petri dish, and smashed to open the pycnidia. The spores were then collected in a sterile filter bowl containing a fluted piece of filter paper and poured into a conical tube.
(§2) After spore isolation, pathogen spores were counted on a hemocytometer to calculate the spores/ml. In 17% V8 liquid media containing 3 g/L CaCO3, isolated spores were diluted to individual concentrations based on the growth curves at 48 hours of each pathogen. The spore concentrations for each pathogen were as follows: B. cinerea—10,000 sp/ml; P. capsici—300 sp/ml; F. monliforme—500 sp/ml; F. virguliforme—500 sp/ml; C. graminicola—3,000 sp/ml; and D. maydis—3,000 sp/ml.
(§3) Chemistry stocks were dissolved in DMSO at 2.5 mg/ml. Chemistry was diluted in a 96-well stock plate in five-fold dilutions to obtain a final concentration of 50, 10, and 2 ppm in vitro. The final concentration of the positive control after the five-fold dilutions was as follows: soraphen—0.5, 0.1, and 0.02 ppm. Negative controls on each plate included 2% DMSO, water containing spores and media, and a blank for background subtraction.
(§4) In a 96-well plate the spore solution, chemistries, and controls were combined to make the final solution concentrations mentioned above. Upon addition of the chemistry, an OD600 reading was done to assess chemical precipitation. The 96-well plates were incubated in plastic tubs containing wet paper towels under the following conditions, 25° C. in the dark for P. capsici and B. cinerea or 26° C. with light/dark cycle for C. graminicola, D. maydis, F. virguliforme, F. monliforme. Plate readings were repeated at 24 and 48 hrs. Visual ratings were performed at 24 and 48 hrs to check for precipitation and confirm efficacy. Visual and OD600 ratings of the chemistry at 48 hours were compared to the 2% DMSO control to determine the percent of pathogen growth inhibition.

[3] = test system: Collectotrichum graminicola; test: Fungal growth inhibition assay, C. graminicola; assay type: cell-based; details: Colletotrichum graminicola, 48 h
Method: as §1
Spore isolation for C. graminicola: A 1-2 week old oatmeal agar (pre-mix) plate was removed from 26° C. incubator with a light/dark 12 hour cycle and the mycelia were treated with 10-15 ml of filter sterilized distilled water. The mycelia were scraped to re-suspend the spores. The spores were then collected in a sterile filter bowl containing a piece of sterile cheesecloth and poured into a conical tube.
as §2, §3, §4

[4] = test system: Fusarium virguliforme; test: Fungal growth inhibition assay, F. virguliforme; assay type: cell-based; details: 48 h
Method: as §1
Spore isolation for F. virguliforme: A 2-3 week old PDA (pre-mix) plate containing cefotaxime (100 mg/L) and kanamycin (50 mg/L) was removed from 26° C. incubator with a light/dark 12 hour cycle and the mycelia were treated with 5-10 ml of filter sterilized distilled water. The mycelia were scraped to re-suspend the spores. The spores were then collected in a sterile filter bowl containing a fluted piece of filter paper and poured into a conical tube.
as §2, §3, §4

[5] = test system: Saccharomyces cerevisiae; test: Yeast growth inhibition assay; assay type: cell-based; details: read-out: S. cerevisiae % growth inhibition
Method: Yeast cells (Ade2 strain) were grown in liquid YPD (1% yeast extract, 2% peptone, 2% dextrose) for 16 hours at 30° C. from previously sub-cultured plates of Saccharomyces cerevisiae. The OD600 of the overnight culture was checked via spectrophotometer and diluted to a concentration of 2×10^4 cells/ml.
Chemistry stocks were dissolved in DMSO to a concentration of 10 mM. Chemistry stocks were further diluted in a 96-well stock plate to obtain final concentrations of […] in 1% DMSO. The final concentrations of the soraphen positive control were 400, 40, and 3.2 nM. The negative controls on each plate included a background subtraction control containing yeast and 1% DMSO (without chemistry) and a second contamination control containing YPD (with no yeast) and 1% DMSO (without chemistry).
98 μl liquid YPD was added to 2 μl diluted stock of DMSO per well and mixed thoroughly. After mixing, 100 μl of the diluted yeast solution was added to bring the final yeast concentration to 1×10^4 cells/ml or 2000 cells per well. An initial spectrophotometric reading at OD600 was conducted on the entire plate and served as the 0 hours time point used to subtract any background. […] […] […] All experiments were conducted in triplicate. Averages were reported along with standard deviation calculation to generate error bars. Each plate contained its own controls and consisted of inoculated+DMSO, non-inoculated+DMSO, and a titration series of soraphen at 400, 40, and 3.2 nM.

Chain of Ustilago maydis acetyl CoA carboxylase (ACCase) (A0A0D1DYD5 1-2185): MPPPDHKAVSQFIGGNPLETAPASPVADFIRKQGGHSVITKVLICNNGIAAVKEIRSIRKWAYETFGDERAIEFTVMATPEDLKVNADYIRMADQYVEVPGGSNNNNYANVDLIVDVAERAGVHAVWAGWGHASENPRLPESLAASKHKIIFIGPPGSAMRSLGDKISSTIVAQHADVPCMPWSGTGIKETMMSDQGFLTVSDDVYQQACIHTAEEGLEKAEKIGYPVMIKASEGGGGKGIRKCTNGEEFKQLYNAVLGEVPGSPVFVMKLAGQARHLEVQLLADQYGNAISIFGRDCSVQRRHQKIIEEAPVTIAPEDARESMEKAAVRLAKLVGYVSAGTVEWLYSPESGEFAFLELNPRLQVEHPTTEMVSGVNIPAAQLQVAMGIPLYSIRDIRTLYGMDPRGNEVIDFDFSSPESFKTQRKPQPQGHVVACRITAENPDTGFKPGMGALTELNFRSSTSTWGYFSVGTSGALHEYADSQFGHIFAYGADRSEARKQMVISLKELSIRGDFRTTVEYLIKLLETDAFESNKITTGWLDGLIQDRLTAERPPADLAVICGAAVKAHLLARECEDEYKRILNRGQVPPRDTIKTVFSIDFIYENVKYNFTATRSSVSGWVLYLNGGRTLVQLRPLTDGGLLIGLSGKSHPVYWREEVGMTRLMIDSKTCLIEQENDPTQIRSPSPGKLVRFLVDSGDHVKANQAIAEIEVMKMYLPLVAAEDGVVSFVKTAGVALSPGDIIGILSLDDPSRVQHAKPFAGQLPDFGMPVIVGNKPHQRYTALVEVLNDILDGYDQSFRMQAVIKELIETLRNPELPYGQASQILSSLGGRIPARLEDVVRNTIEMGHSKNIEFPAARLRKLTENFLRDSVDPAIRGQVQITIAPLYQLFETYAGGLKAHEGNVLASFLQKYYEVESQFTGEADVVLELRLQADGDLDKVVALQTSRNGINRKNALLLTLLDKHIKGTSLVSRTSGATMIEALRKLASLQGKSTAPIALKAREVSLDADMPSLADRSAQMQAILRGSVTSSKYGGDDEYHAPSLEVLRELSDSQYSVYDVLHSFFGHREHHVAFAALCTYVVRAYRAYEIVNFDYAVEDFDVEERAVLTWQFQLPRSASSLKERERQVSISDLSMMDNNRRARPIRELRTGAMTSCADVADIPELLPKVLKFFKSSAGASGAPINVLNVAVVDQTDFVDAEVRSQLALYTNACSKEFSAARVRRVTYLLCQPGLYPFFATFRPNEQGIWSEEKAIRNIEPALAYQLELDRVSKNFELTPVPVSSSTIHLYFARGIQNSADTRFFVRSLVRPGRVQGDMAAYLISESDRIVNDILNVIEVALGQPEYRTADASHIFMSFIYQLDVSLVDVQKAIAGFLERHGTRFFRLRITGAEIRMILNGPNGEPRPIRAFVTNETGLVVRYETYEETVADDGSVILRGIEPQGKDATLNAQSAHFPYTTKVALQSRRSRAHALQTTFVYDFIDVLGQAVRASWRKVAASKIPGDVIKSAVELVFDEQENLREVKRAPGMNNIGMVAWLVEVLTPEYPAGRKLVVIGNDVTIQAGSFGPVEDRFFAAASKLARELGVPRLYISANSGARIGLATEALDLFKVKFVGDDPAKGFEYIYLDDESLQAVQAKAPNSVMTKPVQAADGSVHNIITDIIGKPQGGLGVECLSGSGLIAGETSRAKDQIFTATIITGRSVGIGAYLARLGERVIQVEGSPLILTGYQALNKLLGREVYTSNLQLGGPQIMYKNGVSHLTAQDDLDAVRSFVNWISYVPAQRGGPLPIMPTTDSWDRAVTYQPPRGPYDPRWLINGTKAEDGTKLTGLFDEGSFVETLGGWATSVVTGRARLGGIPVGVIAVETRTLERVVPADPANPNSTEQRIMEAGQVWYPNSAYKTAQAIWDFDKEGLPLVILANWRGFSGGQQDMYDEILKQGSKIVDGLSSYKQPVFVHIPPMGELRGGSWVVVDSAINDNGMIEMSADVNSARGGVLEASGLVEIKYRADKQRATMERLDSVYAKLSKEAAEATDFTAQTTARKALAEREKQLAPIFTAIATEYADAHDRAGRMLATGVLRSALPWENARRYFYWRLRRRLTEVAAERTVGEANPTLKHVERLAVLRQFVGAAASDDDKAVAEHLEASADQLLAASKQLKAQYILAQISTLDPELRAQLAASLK

Compound	IC50 [1] [µM]	inhibition at 2 ppm [2] [%]	inhibition at 10 ppm [2] [%]	inhibition at 2 ppm [3] [%]	inhibition at 10 ppm [3] [%]	other results
COc1ccc2c(-c3ccccc3)cc(SC(C)C(N)=O)nc2c1 (centres unmarked) [Formula III-i, 2-((7-methoxy-4-phenylquinolin-2-yl)thio)propanamide]	8.8					
COC(=O)COc1ccc(-c2cc(-c3ccccc3)c3ccccc3n2)cc1 [Formula IIc-i, methyl 2-(4-(4-phenylquinolin-2-yl)phenoxy)acetate]		12	44			
COC(=O)Cc1ccc(-c2cc(-c3ccccc3)c3ccccc3n2)s1 [Formula IId-i, methyl 2-(5-(4-phenylquinolin-2-yl)thiophen-2-yl)acetate]	12	16	26	6	32	inhibition at 50 ppm [3]: 79%
COC(=O)Cc1ccc(-c2nc3ccccc3c(-c3ccccc3)c2Cl)s1 [Formula IId-ii, methyl 2-(5-(3-chloro-4-phenylquinolin-2-yl)thiophen-2-yl)acetate]		26	30			inhibition at 2 ppm [4]: 44%; inhibition at 10 ppm [4]: 34%
COc1ccc(-c2cc(-c3ccccc3)c3ccccc3n2)cc1 [Formula IV-i, 2-(4-methoxyphenyl)-4-phenylquinoline]	21.2	21	44	35	22	
COc1ccc(-c2cc(-c3ccccc3)c3ccccc3n2)cc1OC [Formula IV-ii, 2-(3,4-dimethoxyphenyl)-4-phenylquinoline]	7.82	26	34	34	41	
NC(=O)COc1ccc(-c2cc(-c3ccccc3)c3ccccc3n2)cc1 [Formula Ia-i, 2-(4-(4-phenylquinolin-2-yl)phenoxy)acetamide]	0.515					
O=C(O)COc1ccc(-c2cc(-c3ccccc3)c3ccccc3n2)cc1 [Formula Ia-ii, 2-(4-(4-phenylquinolin-2-yl)phenoxy)acetic acid]	0.165					
COc1cccc2c(-c3ccccc3)cc(-c3ccc(OCC(N)=O)cc3)nc12 [Formula Ia-iii, 2-(4-(8-methoxy-4-phenylquinolin-2-yl)phenoxy)acetamide]	0.549					
CCc1cccc2c(-c3ccccc3)cc(-c3ccc(OCC(N)=O)cc3)nc12 [Formula Ia-iv, 2-(4-(8-ethyl-4-phenylquinolin-2-yl)phenoxy)acetamide]	8.15					
O=C(COc1ccc(-c2cc(-c3ccccc3)c3cc(Cl)ccc3n2)cc1)NCCO [Formula Ia-v, 2-(4-(6-chloro-4-phenylquinolin-2-yl)phenoxy)-N-(2-hydroxyethyl)acetamide]	13					
NC(=O)Cc1ccc(-c2nc3ccccc3c(-c3ccccc3)c2Cl)s1 [Formula Ib-i, 2-(5-(3-chloro-4-phenylquinolin-2-yl)thiophen-2-yl)acetamide]	1.32			44	51	inhibition at 2 ppm [4]: 43%; inhibition at 10 ppm [4]: 31%
NC(=O)Cc1ccc(-c2cc(-c3ccccc3)c3ccccc3n2)s1 [Formula Ib-iii, 2-(5-(4-phenylquinolin-2-yl)thiophen-2-yl)acetamide]	8.18			31	98	inhibition at 50 ppm [3]: 81%; inhibition at 3.7 µM ([5]; 3.7 μM): 0%; inhibition at 11.1 µM ([5]; 11.1 μM): 14%; inhibition at 33.3 µM ([5]; 33.3 μM): 57%; inhibition at 100 µM ([5]; 100 μM): 99%
COc1cccc2c(-c3ccccc3)cc(-c3ccc(CC(N)=O)s3)nc12 [Formula Ib-v, 2-(5-(8-methoxy-4-phenylquinolin-2-yl)thiophen-2-yl)acetamide]	4.21					
CCc1cccc2c(-c3ccccc3)cc(-c3ccc(CC(N)=O)s3)nc12 [Formula Ib-vi, 2-(5-(8-ethyl-4-phenylquinolin-2-yl)thiophen-2-yl)acetamide]	9.58					
CO[C@H]1CCCC[C@@H](c2ccccc2)OC(=O)[C@@H](C)[C@@]2(O)O[C@H]([C@@H](C)[C@H](O)[C@H]2OC)[C@@H](C)/C=C/[C@H]1OC [Soraphen, reference compound]	0.0458					
